The record followed here is patent US5677419A, “Cyclic vasoactive peptide analogs” (Hoffmann-La Roche Inc., priority 1994, dated 1997).

Molecules are shown by their SMILES. Where a SMILES comes first, the peptide text is derived from it. Bridges are numbered along the chain shown (N, C = ends). [ ]: non-standard residue; d: D form. 2Nal = N[C@@H](Cc1ccc2ccccc2c1)C(=O)O; Nle = CCCC[C@H](N)C(=O)O; Orn = NCCC[C@H](N)C(=O)O

Broadly, the EC50 is the concentration needed to bring the measured effect to its halfway point. Read a low EC50 as higher potency in that assay.

This assay relates to guinea pig tracheal smooth muscle. Kind of assay: Tracheal relaxant activity of VIP analogs on isolated guinea pig tracheal rings. To be noted: cumulative concentration response, relaxation as % of maximum response to VIP (10^-6 M=100%), three tissues pooled, linear regression. It is filed as cell-based. The procedure:
The relaxant activity of the VIP analogs were studied in a model utilizing guinea pig trachea. [Wasserman, M. A. et al., in Vasoactive Intestinal Peptide, S. I. Said, ed., Raven Press, New York 1982, pp 177-184] All tissues were taken from male albino guinea pig weighing 400-600 g, anesthetized with urethane (2 g/kg, i.p.). After exanguination, the trachea were removed and divided into four ring segments (3 mm length). Each ring was suspended by 30 gauge stainless steel wires in a 10 mL jacketed tissue bath and attached via 4-0 silk thread to a GRASS force displacement transducer (model FT03C, Grass Instruments Co., Quincy, Mass.), for isometric recording of tension. The smooth muscle was bathed in modified Krebs solution of the following composition: NaCl, 120 mM; KCl, 4.7 mM; CaCl2, 2.5 mM; MgSO4.7H2 O, 1.2 mM; NaHCO3, 25 mM; K2 HPO4 monobasic, 1.2 mM; and dextrose, 10 mM. Tissue baths were maintained at 37° C. and constantly bubbled with 95% O2 and 5% CO2. Responses were recorded on an 8 channel and a 4 channel HEWLETT-PACKARD (model 7702B and 7754A, respectively) recorder (Hewlett- Packard, Paramus, N.J.). Tracheal rings were placed under a resting tension of 1.5 g which was determined to be at or near optimal in preliminary experiments. Frequent readjustments of tension were required during the 60 minute stabilization period which followed. Tissues were rinsed at 15 minute intervals.
Cumulative concentration response curves were obtained for each tissue by successive […] increases in the bath concentration of VIP or VIP analogs according to the method of VanRossum [Arch. Int. Pharmacodyn., 143, 299-330 (1963)]. Only one cumulative dose response curve was obtained on a single tissue. To minimize variability between tissues, relaxant responses were expressed as a percentage of the maximum response obtained to VIP (10^-6 M=100%) added at the end of each concentration response experiment. Responses obtained from three tissues were pooled and EC50 values were determined by linear regression.
The results summarized in Table I show the tracheal relaxant activity of the VIP analogs in comparison to native VIP.
`CCCC[C@H](NC(=O)[C@H](CCC(N)=O)NC(=O)[C@H](CCCCN)NC(=O)[C@H](CCCNC(=N)N)NC(=O)[C@H](CC(C)C)NC(=O)[C@@H]1CCCCNC(=O)C[C@H](NC(=O)[C@@H](NC(=O)[C@H](Cc2ccccc2)NC(=O)[C@@H](NC(=O)[C@H](C)NC(=O)[C@H](CC(=O)O)NC(=O)[C@H](CO)NC(=O)[C@H](Cc2c[nH]cn2)NC(C)=O)C(C)C)[C@@H](C)O)C(=O)N[C@@H](CC(N)=O)C(=O)N[C@@H](Cc2ccc(O)cc2)C(=O)N[C@@H]([C@@H](C)O)C(=O)N1)C(=O)N[C@@H](C)C(=O)N[C@H](C(=O)N[C@@H](CCCCN)C(=O)N[C@@H](CCCCN)C(=O)N[C@@H](Cc1ccc(O)cc1)C(=O)N[C@@H](CC(C)C)C(=O)N[C@@H](CC(N)=O)C(=O)N[C@@H](CO)C(=O)N[C@H](C(=O)N[C@@H](CC(C)C)C(=O)N[C@H](C(N)=O)[C@@H](C)O)C(C)C)C(C)C` [SEQ ID NO:20, Ac-[Lys^12,Nle^17,Val^26,Thr^28]-VIP cyclo (Asp^8 →Lys^12)] (Ac-HSDAVFTDNYTKLRKQ[Nle]AVKKYLNSVLT-NH2; lactam 8-12): the EC50 turned out to be 0.014 µM.

With `CCCC[C@H](NC(=O)[C@H](CCC(N)=O)NC(=O)[C@H](CCCCN)NC(=O)[C@H](CCCNC(=N)N)NC(=O)[C@H](CC(C)C)NC(=O)[C@@H]1CCCCNC(=O)CC[C@H](NC(=O)[C@@H](NC(=O)[C@H](Cc2ccccc2)NC(=O)[C@@H](NC(=O)[C@H](C)NC(=O)[C@H](CC(=O)O)NC(=O)[C@H](CO)NC(=O)[C@H](Cc2c[nH]cn2)NC(C)=O)C(C)C)[C@@H](C)O)C(=O)N[C@@H](CC(N)=O)C(=O)N[C@@H](Cc2ccc(O)cc2)C(=O)N[C@@H]([C@@H](C)O)C(=O)N1)C(=O)N[C@@H](C)C(=O)N[C@H](C(=O)N[C@@H](CCCCN)C(=O)N[C@@H](CCCCN)C(=O)N[C@@H](Cc1ccc(O)cc1)C(=O)N[C@@H](CC(C)C)C(=O)N[C@@H](CC(N)=O)C(=O)N[C@@H](CO)C(=O)N[C@H](C(=O)N[C@@H](CC(C)C)C(=O)N[C@H](C(N)=O)[C@@H](C)O)C(C)C)C(C)C` [SEQ ID NO:21, Ac-[Glu^8,Lys^12,Nle^17,Val^26,Thr^28]-VIP cyclo (Glu^8 →Lys^12)] (Ac-HSDAVFTENYTKLRKQ[Nle]AVKKYLNSVLT-NH2; lactam 8-12), the EC50 worked out at 0.034 µM.

`CCCC[C@H](NC(=O)[C@H](CCC(N)=O)NC(=O)[C@H](CCCCN)NC(=O)[C@H](CCCNC(=N)N)NC(=O)[C@H](CC(C)C)NC(=O)[C@@H]1CCCCNC(=O)C[C@H](NC(=O)[C@H](CC(N)=O)NC(=O)[C@@H](NC(=O)[C@H](Cc2ccccc2)NC(=O)[C@@H](NC(=O)[C@H](C)NC(=O)[C@H](CC(=O)O)NC(=O)[C@H](CO)NC(=O)[C@H](Cc2c[nH]cn2)NC(C)=O)C(C)C)[C@@H](C)O)C(=O)N[C@@H](Cc2ccc(O)cc2)C(=O)N[C@@H]([C@@H](C)O)C(=O)N1)C(=O)N[C@@H](C)C(=O)N[C@H](C(=O)N[C@@H](CCCCN)C(=O)N[C@@H](CCCCN)C(=O)N[C@@H](Cc1ccc(O)cc1)C(=O)N[C@@H](CC(C)C)C(=O)N[C@@H](CC(N)=O)C(=O)N[C@@H](CO)C(=O)N[C@H](C(=O)N[C@@H](CC(C)C)C(=O)N[C@H](C(N)=O)[C@@H](C)O)C(C)C)C(C)C` [SEQ ID NO:22, Ac-[Asn^8,Asp^9,Lys^12,Nle^17,Val^26,Thr^28]-VIP cyclo (Asp^9 →Lys^12)] (Ac-HSDAVFTNDYTKLRKQ[Nle]AVKKYLNSVLT-NH2; lactam 9-12): a half-maximal response (EC50) required 0.017 µM.

Consider `CCCC[C@H](NC(=O)[C@H](CCC(N)=O)NC(=O)[C@H](CCCCN)NC(=O)[C@H](CCCNC(=N)N)NC(=O)[C@H](CC(C)C)NC(=O)[C@@H]1CCCNC(=O)C[C@H](NC(=O)[C@@H](NC(=O)[C@H](Cc2ccccc2)NC(=O)[C@@H](NC(=O)[C@H](C)NC(=O)[C@H](CC(=O)O)NC(=O)[C@H](CO)NC(=O)[C@H](Cc2c[nH]cn2)NC(C)=O)C(C)C)[C@@H](C)O)C(=O)N[C@@H](CC(N)=O)C(=O)N[C@@H](Cc2ccc(O)cc2)C(=O)N[C@@H]([C@@H](C)O)C(=O)N1)C(=O)N[C@@H](C)C(=O)N[C@H](C(=O)N[C@@H](CCCCN)C(=O)N[C@@H](CCCCN)C(=O)N[C@@H](Cc1ccc(O)cc1)C(=O)N[C@@H](CC(C)C)C(=O)N[C@@H](CC(N)=O)C(=O)N[C@@H](CO)C(=O)N[C@H](C(=O)N[C@@H](CC(C)C)C(=O)N[C@H](C(N)=O)[C@@H](C)O)C(C)C)C(C)C` [SEQ ID NO:23, Ac-[Orn^12,Nle^17,Val^26,Thr^28]-VIP cyclo (Asp^8 →Orn^12)] (Ac-HSDAVFTDNYT[Orn]LRKQ[Nle]AVKKYLNSVLT-NH2; lactam 8-12), for which a half-maximal effect (EC50) was put at 0.04 µM.

As for `CCCC[C@H](NC(=O)[C@H](CCC(N)=O)NC(=O)[C@H](CCCCN)NC(=O)[C@H](CCCNC(=N)N)NC(=O)[C@H](CC(C)C)NC(=O)[C@@H]1CC(=O)NCCCC[C@H](NC(=O)[C@@H](NC(=O)[C@H](Cc2ccccc2)NC(=O)[C@@H](NC(=O)[C@H](C)NC(=O)[C@H](CC(=O)O)NC(=O)[C@H](CO)NC(=O)[C@H](Cc2c[nH]cn2)NC(C)=O)C(C)C)[C@@H](C)O)C(=O)N[C@@H](CC(N)=O)C(=O)N[C@@H](Cc2ccc(O)cc2)C(=O)N[C@@H]([C@@H](C)O)C(=O)N1)C(=O)N[C@@H](C)C(=O)N[C@H](C(=O)N[C@@H](CCCCN)C(=O)N[C@@H](CCCCN)C(=O)N[C@@H](Cc1ccc(O)cc1)C(=O)N[C@@H](CC(C)C)C(=O)N[C@@H](CC(N)=O)C(=O)N[C@@H](CO)C(=O)N[C@H](C(=O)N[C@@H](CC(C)C)C(=O)N[C@H](C(N)=O)[C@@H](C)O)C(C)C)C(C)C` [SEQ ID NO:24, Ac-[Lys^8,Asp^12,Nle^17,Val^26,Thr^28]-VIP cyclo (Lys^8 →Asp^12)] (Ac-HSDAVFTKNYTDLRKQ[Nle]AVKKYLNSVLT-NH2; lactam 8-12), the response was half-maximal at 0.038 µM (EC50).

For the compound `CCCC[C@H](NC(=O)[C@H](CCC(N)=O)NC(=O)[C@H](CCCCN)NC(=O)[C@H](CCCNC(=N)N)NC(=O)[C@H](CC(C)C)NC(=O)[C@@H]1CCCNC(=O)CC[C@H](NC(=O)[C@@H](NC(=O)[C@H](Cc2ccccc2)NC(=O)[C@@H](NC(=O)[C@H](C)NC(=O)[C@H](CC(=O)O)NC(=O)[C@H](CO)NC(=O)[C@H](Cc2c[nH]cn2)NC(C)=O)C(C)C)[C@@H](C)O)C(=O)N[C@@H](CC(N)=O)C(=O)N[C@@H](Cc2ccc(O)cc2)C(=O)N[C@@H]([C@@H](C)O)C(=O)N1)C(=O)N[C@@H](C)C(=O)N[C@H](C(=O)N[C@@H](CCCCN)C(=O)N[C@@H](CCCCN)C(=O)N[C@@H](Cc1ccc(O)cc1)C(=O)N[C@@H](CC(C)C)C(=O)N[C@@H](CC(N)=O)C(=O)N[C@@H](CO)C(=O)N[C@H](C(=O)N[C@@H](CC(C)C)C(=O)N[C@H](C(N)=O)[C@@H](C)O)C(C)C)C(C)C` [SEQ ID NO:25, Ac-[Glu^8,Orn^12,Nle^17,Val^26,Thr^28]-VIP cyclo (Glu^8 →Orn^12)] (Ac-HSDAVFTENYT[Orn]LRKQ[Nle]AVKKYLNSVLT-NH2; lactam 8-12), a half-maximal effect (EC50) was put at 0.016 µM.

In turn, `CCCC[C@H](NC(=O)[C@H](CCC(N)=O)NC(=O)[C@H](CCCCN)NC(=O)[C@H](CCCNC(=N)N)NC(=O)[C@H](CC(C)C)NC(=O)[C@H](CC(C)C)NC(=O)[C@@H](NC(=O)[C@H](Cc1ccc2ccccc2c1)NC(=O)[C@H](CC(N)=O)NC(=O)[C@H](CC(=O)O)NC(=O)[C@@H](NC(=O)[C@H](Cc1ccccc1)NC(=O)[C@@H](NC(=O)[C@H](C)NC(=O)[C@H](CC(=O)O)NC(=O)[C@H](CO)NC(=O)[C@H](Cc1c[nH]cn1)NC(C)=O)C(C)C)[C@@H](C)O)[C@@H](C)O)C(=O)N[C@@H](C)C(=O)N[C@@H](C)C(=O)N[C@@H](CCCCN)C(=O)N[C@H]1CCCCNC(=O)C[C@@H](C(=O)N[C@H](C(=O)N[C@@H](CC(C)C)C(=O)N[C@H](C(N)=O)[C@@H](C)O)C(C)C)NC(=O)[C@H](CC(N)=O)NC(=O)[C@H](CC(C)C)NC(=O)[C@H](Cc2ccc(O)cc2)NC1=O` [SEQ ID NO:35, Ac-[2-Nal^10,Leu^12,Nle^17,Ala^19,Asp^25,Val^26,Thr^28]-VIP cyclo (Lys^21 →Asp^25)] (Ac-HSDAVFTDN[2Nal]TLLRKQ[Nle]AAKKYLNDVLT-NH2; lactam 21-25) showed an EC50 of 0.0042 µM.
